This passage reports IC50 results from US20230117324A1, “OXAZINE MONOACYLGLYCEROL LIPASE (MAGL) INHIBITORS” (Hoffmann-La Roche Inc., priority 2018, published 2023).

Structures are written as SMILES.

This assay addresses T1, MAGL (Homo sapiens, UniProt Q99685).
T1 sequence (Q99685 1-303): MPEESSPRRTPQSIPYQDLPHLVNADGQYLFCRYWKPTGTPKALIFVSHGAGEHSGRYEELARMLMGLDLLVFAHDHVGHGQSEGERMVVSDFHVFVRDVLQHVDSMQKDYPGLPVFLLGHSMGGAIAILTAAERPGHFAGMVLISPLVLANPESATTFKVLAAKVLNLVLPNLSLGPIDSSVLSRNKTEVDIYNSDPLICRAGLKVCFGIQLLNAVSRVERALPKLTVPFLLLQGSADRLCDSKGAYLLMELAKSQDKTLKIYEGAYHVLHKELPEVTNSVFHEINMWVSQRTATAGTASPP
As to the kind of experiment: MAGL inhibition, 2-AG assay (hydrolysis of 2-arachidonoylglycerol, arachidonic acid by mass spectrometry). The format is biochemical. To be noted: 2-AG assay (footnote [b]). An outline of the steps: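 Hydrolysis of 8 μM 2-arachidonoylglycerol by […] was run for 30 min at RT after a 15 min compound preincubation, in Tris/EDTA/Tween buffer. Test compounds spanned […]. The product was measured by online SPE-MS/MS (transitions 303.1→259.1 and 311.1→267.0), and activity was derived from the arachidonic acid/d8-arachidonic acid signal ratio.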
In the case of `O=C1CO[C@H]2CCN(C(=O)N3CC(c4ccc(OC(F)(F)F)cc4F)C3)C[C@H]2N1` [Example 182, (4aR,8aS)-6-(3-(2-Fluoro-4-(trifluoromethoxy)phenyl)azetidine-1-carbonyl)hexahydro-2H-pyrido[4,3-b][1,4]oxazin-3(4H)-one], the IC50 (in general, the concentration that inhibits the measured activity by half) came to 8 nM. On to `COc1ccc(C2CN(C(=O)N3CC[C@@H]4OCC(=O)N[C@@H]4C3)C2)cn1` [Example 183, (4aR,8aS)-6-[3-(6-Methoxypyridin-3-yl)azetidine-1-carbonyl]-4,4a,5,7,8,8a-hexahydropyrido[4,3-b][1,4]oxazin-3-one], for which half-maximal inhibition (IC50) required 1600 nM. Consider `O=C1CO[C@H]2CCN(C(=O)N3CCC(c4ccc(Br)cc4)C3)C[C@H]2N1` (stereo partly drawn) [Example 184, (4aR,8aS)-6-(3-(4-Bromophenyl)pyrrolidine-1-carbonyl)hexahydro-2H-pyrido[4,3-b][1,4]oxazin-3(4H)-one], for which the midpoint of inhibition, the IC50, lay at 146 nM. `O=C1CO[C@H]2CCN(C(=O)N3CC(c4ccccc4)C3)C[C@H]2N1` [Example 185, (4aR,8aS)-6-(3-Phenylazetidine-1-carbonyl)hexahydro-2H-pyrido[4,3-b][1,4]oxazin-3(4H)-one] gave a half-inhibitory concentration (IC50) of 139 nM.

The molecule `O=C1CO[C@H]2CCN(C(=O)N3CCC(c4ccccc4)CC3)C[C@H]2N1` [Example 186, (4aR,8aS)-6-(4-Phenylpiperidine-1-carbonyl)hexahydro-2H-pyrido[4,3-b][1,4]oxazin-3(4H)-one] showed an IC50 of 1000 nM. As for `O=C1CO[C@H]2CCN(C(=O)N3CC(c4ccc(CC(F)(F)F)cc4)C3)C[C@H]2N1` [Example 187, (4aR,8aS)-6-[3-[4-(2,2,2-Trifluoroethyl)phenyl]azetidine-1-carbonyl]-4,4a,5,7,8,8a-hexahydropyrido[4,3-b][1,4]oxazin-3-one], the half-inhibitory concentration (IC50) amounted to 1 nM. This IC50 is about 1000-fold lower than that of the molecule before. As for `O=C1CO[C@H]2CCN(C(=O)N3CC(c4ccc(C5(C(F)(F)F)CC5)cc4)C3)C[C@H]2N1` [Example 188, (4aR,8aS)-6-[3-[4-[1-(Trifluoromethyl)cyclopropyl]phenyl]azetidine-1-carbonyl]-4,4a,5,7,8,8a-hexahydropyrido[4,3-b][1,4]oxazin-3-one], the figure is 4 nM; as for `O=C1CO[C@H]2CCN(C(=O)N3CC(c4ccc(N5CC6(C5)CC(F)(F)C6)cc4)C3)C[C@H]2N1` [Example 191, (4aR,8aS)-6-[3-[4-(6,6-Difluoro-2-azaspiro[3.3]heptan-2-yl)phenyl]azetidine-1-carbonyl]-4,4a,5,7,8,8a-hexahydropyrido[4,3-b][1,4]oxazin-3-one], 0.5 nM; as for `O=C1CO[C@H]2CCN(C(=O)N3CC(c4ccc(N5CC6CCC(C5)O6)cc4)C3)C[C@H]2N1` [Example 192, (4aR,8aS)-6-(3-(4-(8-Oxa-3-azabicyclo[3.2.1]octan-3-yl)phenyl)azetidine-1-carbonyl)hexahydro-2H-pyrido[4,3-b][1,4]oxazin-3(4H)-one], 8 nM. In turn, `O=C1CO[C@H]2CCN(C(=O)N3CC(c4ccc(-c5ccc(Cl)cc5Cl)cn4)C3)C[C@H]2N1` [Example 193, (4aR,8aS)-6-(3-(5-(2,4-Dichlorophenyl)pyridin-2-yl)azetidine-1-carbonyl)hexahydro-2H-pyrido[4,3-b][1,4]oxazin-3(4H)-one] registered a half-maximal inhibitory concentration (IC50) of 1 nM.

With `O=C1CO[C@H]2CCN(C(=O)N3CC(c4ccc(N5CCCCC5)cc4)C3)C[C@H]2N1` [Example 196, (4aR,8aS)-6-[3-[4-(1-Piperidyl)phenyl]azetidine-1-carbonyl]-4,4a,5,7,8,8a-hexahydropyrido[4,3-b][1,4]oxazin-3-one], the midpoint of inhibition, the IC50, lay at 2 nM.

`CC1(O)CN(c2ccc(C3CN(C(=O)N4CC[C@@H]5OCC(=O)N[C@@H]5C4)C3)cc2)C1` [Example 199, (4aR,8aS)-6-[3-[4-(3-Hydroxy-3-methylazetidin-1-yl)phenyl]azetidine-1-carbonyl]-4,4a,5,7,8,8a-hexahydropyrido[4,3-b][1,4]oxazin-3-one] showed a 50% inhibitory concentration (IC50) of 278 nM. As for `CC1(F)CN(c2ccc(C3CN(C(=O)N4CC[C@@H]5OCC(=O)N[C@@H]5C4)C3)cc2)C1` [Example 200, (4aR,8aS)-6-[3-[4-(3-Fluoro-3-methyl-azetidin-1-yl)phenyl]azetidine-1-carbonyl]-4,4a,5,7,8,8a-hexahydropyrido[4,3-b][1,4]oxazin-3-one], the figure is 14 nM; as for `O=C1CO[C@H]2CCN(C(=O)N3CC(c4ccc(N5CC(F)C5)cc4)C3)C[C@H]2N1` [Example 201, (4aR,8aS)-6-(3-(4-(3-Fluoroazetidin-1-yl)phenyl)azetidine-1-carbonyl)hexahydro-2H-pyrido[4,3-b][1,4]oxazin-3(4H)-one], 101 nM; as for `O=C1CO[C@H]2CCN(C(=O)N3CC(c4ccc(OC(F)(F)F)c(F)c4)C3)C[C@H]2N1` [Example 202, (4aR,8aS)-6-(3-(3-Fluoro-4-(trifluoromethoxy)phenyl)azetidine-1-carbonyl)hexahydro-2H-pyrido[4,3-b][1,4]oxazin-3(4H)-one], 12 nM. Regarding `Cc1cc(C2CN(C(=O)N3CC[C@@H]4OCC(=O)N[C@@H]4C3)C2)ccc1OC(F)(F)F` [Example 203, (4aR,8aS)-6-(3-(3-Methyl-4-(trifluoromethoxy)phenyl)azetidine-1-carbonyl)hexahydro-2H-pyrido[4,3-b][1,4]oxazin-3(4H)-one], the IC50 was 0.8 nM. The result for `O=C1CO[C@H]2CCN(C(=O)N3CC(c4cc(F)c(OC(F)(F)F)c(F)c4)C3)C[C@H]2N1` [Example 204, (4aR,8aS)-6-(3-(3,5-Difluoro-4-(trifluoromethoxy)phenyl)azetidine-1-carbonyl)hexahydro-2H-pyrido[4,3-b][1,4]oxazin-3(4H)-one] reads 10 nM; that for `O=C1CO[C@H]2CCN(C(=O)N3CC(c4ccc(OC(F)(F)F)cc4Cl)C3)C[C@H]2N1` [Example 205, (4aR,8aS)-6-(3-(2-Chloro-4-(trifluoromethoxy)phenyl)azetidine-1-carbonyl)hexahydro-2H-pyrido[4,3-b][1,4]oxazin-3(4H)-one], 18 nM; that for `O=C1CO[C@H]2CCN(C(=O)N3CC(c4ccc(C56CC(C5)C6)cc4)C3)C[C@H]2N1` [Example 206, (4aR,8aS)-6-(3-(4-(Bicyclo[1.1.1]pentan-1-yl)phenyl)azetidine-1-carbonyl)hexahydro-2H-pyrido[4,3-b][1,4]oxazin-3(4H)-one], 5 nM.

Consider `O=C1CO[C@H]2CCN(C(=O)N3CC(c4ccc(N5CCCC5C(F)(F)F)cn4)C3)C[C@H]2N1` (stereo partly drawn) [Example 207, (4aR,8aS)-6-(3-(5-(2-(Trifluoromethyl)pyrrolidin-1-yl)pyridin-2-yl)azetidine-1-carbonyl)hexahydro-2H-pyrido[4,3-b][1,4]oxazin-3(4H)-one], for which 6 nM corresponded to half-maximal inhibition (IC50). For the molecule `O=C1CO[C@H]2CCN(C(=O)N3CCC(c4c[nH]c5ccc(F)cc45)C3)C[C@H]2N1` (stereo partly drawn) [Example 208, (4aR,8aS)-6-(3-(5-Fluoro-1H-indol-3-yl)pyrrolidine-1-carbonyl)hexahydro-2H-pyrido[4,3-b][1,4]oxazin-3(4H)-one], half-maximal inhibition (IC50) required 48 nM. The result for `O=C1CO[C@H]2CCN(C(=O)N3CCC(c4cn(Cc5ccccc5)c5ccc(Cl)cc45)C3)C[C@H]2N1` (stereo partly drawn) [Example 209, (4aR,8aS)-6-(3-(1-Benzyl-5-chloro-1H-indol-3-yl)pyrrolidine-1-carbonyl)hexahydro-2H-pyrido[4,3-b][1,4]oxazin-3(4H)-one] reads 0.8 nM.

Molecule `O=C1CO[C@H]2CCN(C(=O)N3CC(c4ccc(C(F)(F)F)cc4F)C3)C[C@H]2N1` [Example 210, (4aR,8aS)-6-(3-(2-Fluoro-4-(trifluoromethyl)phenyl)azetidine-1-carbonyl)hexahydro-2H-pyrido[4,3-b][1,4]oxazin-3(4H)-one] came in with an IC50 of 112 nM. `O=C1CO[C@H]2CCN(C(=O)N3CC(c4ccc(OC(F)(F)F)c(Cl)c4)C3)C[C@H]2N1` [Example 211, (4aR,8aS)-6-(3-(3-Chloro-4-(trifluoromethoxy)phenyl)azetidine-1-carbonyl)hexahydro-2H-pyrido[4,3-b][1,4]oxazin-3(4H)-one] came in with an IC50 of 11 nM. Against the preceding molecule, the IC50 is about 10-fold lower. Regarding `O=C1CO[C@H]2CCN(C(=O)N3CC(c4ccc(N5CC(OCC6CC6)C5)cc4)C3)C[C@H]2N1` [Example 212, (4aR,8aS)-6-[3-[4-[3-(Cyclopropylmethoxy)azetidin-1-yl]phenyl]azetidine-1-carbonyl]-4,4a,5,7,8,8a-hexahydropyrido[4,3-b][1,4]oxazin-3-one], the half-maximal inhibitory concentration (IC50) worked out at 3 nM. As for `N#Cc1cc(C2CN(C(=O)N3CC[C@@H]4OCC(=O)N[C@@H]4C3)C2)ccc1OC(F)(F)F` [Example 213, 5-(1-((4aR,8aS)-3-Oxooctahydro-2H-pyrido[4,3-b][1,4]oxazine-6-carbonyl)azetidin-3-yl)-2-(trifluoromethoxy)benzonitrile], the figure is 114 nM. Consider `O=C1CO[C@H]2CCN(C(=O)N3CC(c4ccc(C5(CO)CC5)cc4)C3)C[C@H]2N1` [Example 214, (4aR,8aS)-6-(3-(4-(1-(Hydroxymethyl)cyclopropyl)phenyl)azetidine-1-carbonyl)hexahydro-2H-pyrido[4,3-b][1,4]oxazin-3(4H)-one], for which the IC50 worked out at 62 nM. This IC50 is about 1.8-fold lower than that of the molecule before.
